“And” between values parts separate entries of the source, which are not always exact repeats. Identical values can stand only once. Inconclusive results and toxic doses are left out. The calls were made as follows: active = survival T/C of 150% or more; inactive = T/C below 125% in these data.
Test system: P388 leukemia ip, CD2F1 mice, survival T/C
Assay: NCI In Vivo Anticancer Drug Screen. Data for tumor model P388 Leukemia (intraperitoneal) in CD2F1 (CDF1) mice
Conditions: endpoint: median survival time, higher = longer survival
Method in brief: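 Mice carrying the transplanted tumor received test compound or vehicle. Survival was recorded in each group, and the value is the treated-group measurement divided by that of the vehicle-treated control group.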

[1] = dose: 60.0 mg/kg/injection, schedule: Q01DX005 (ip), vehicle: saline with Tween-80
[2] = dose: 50.0 mg/kg/injection, schedule: Q01DX009 (ip), vehicle: saline with Tween-80
[3] = dose: 100.0 mg/kg/injection, schedule: Q01DX009 (ip), vehicle: saline with Tween-80
[4] = dose: 120.0 mg/kg/injection, schedule: Q01DX005 (ip), vehicle: saline with Tween-80

Measured: T/C

COc1ccc(N=N/N=c2\sc3cc(Cl)ccc3n2C)cc1
inactive: dose: 7.5 mg/kg/injection, schedule: Q01DX005 (ip), vehicle: saline with Tween-80 115 % of control | dose: 15.0 mg/kg/injection, schedule: Q01DX005 (ip), vehicle: saline with Tween-80 113 % of control and 121 % of control | dose: 30.0 mg/kg/injection, schedule: Q01DX005 (ip), vehicle: saline with Tween-80 115 % of control and 124 % of control | [1] 112 % of control

O=C1C=C(Cl)C(=O)C(c2ccc(Cl)cc2)=C1
inactive: dose: 6.25 mg/kg/injection, schedule: Q01DX009 (ip), vehicle: Klucel (hydroxypropylcellulose) (HPC) 100 % of control | dose: 12.5 mg/kg/injection, schedule: Q01DX009 (ip), vehicle: Klucel (hydroxypropylcellulose) (HPC) 96 % of control | dose: 50.0 mg/kg/injection, schedule: Q01DX009 (ip), vehicle: Klucel (hydroxypropylcellulose) (HPC) 92 % of control

O=C(OCC1CC=CCC1CCl)c1ccccc1 (stereo unspecified)
inactive: [2] 96 % of control | [3] 99 % of control | dose: 200.0 mg/kg/injection, schedule: Q01DX009 (ip), vehicle: saline with Tween-80 99 % of control

COCCCNC1=C(C#N)C(=O)NC(c2cccs2)S1 (stereo unspecified)
inactive: [2] 117 % of control | [3] 119 % of control

COc1cc(C2C3=C(CC(C)(C)CC3=O)Oc3cc4c(cc32)OCO4)cc(OC)c1OC (stereo unspecified)
inactive: [1] 97 % of control | [4] 98 % of control

N#CC(OC1OC(COC2OC(CO)C(O)C(O)C2O)C(O)C(O)C1O)c1ccccc1 (stereo unspecified)
inactive: dose: 25.0 mg/kg/injection, schedule: Q01DX009 (ip), vehicle: water 102 % of control and 108 % of control | dose: 50.0 mg/kg/injection, schedule: Q01DX009 (ip), vehicle: water 101 % of control and 108 % of control | dose: 100.0 mg/kg/injection, schedule: Q01DX009 (ip), vehicle: water 102 % of control and 105 % of control and 94 % of control | dose: 200.0 mg/kg/injection, schedule: Q01DX009 (ip), vehicle: water 105 % of control and 109 % of control and 92 % of control | dose: 400.0 mg/kg/injection, schedule: Q01DX009 (ip), vehicle: water 105 % of control and 110 % of control and 96 % of control | dose: 800.0 mg/kg/injection, schedule: Q01DX009 (ip), vehicle: saline 98 % of control | dose: 800.0 mg/kg/injection, schedule: Q01DX009 (ip), vehicle: water 105 % of control and 123 % of control and 96 % of control | dose: 1600.0 mg/kg/injection, schedule: Q01DX009 (ip), vehicle: saline 100 % of control

NNC(=O)C(O)C(O)C(=O)NN (stereo unspecified)
inactive: dose: 30.0 mg/kg/injection, schedule: Q01DX005 (ip), vehicle: saline 97 % of control | dose: 30.0 mg/kg/injection, schedule: Q01DX009 (ip), vehicle: saline 103 % of control | dose: 60.0 mg/kg/injection, schedule: Q01DX005 (ip), vehicle: saline 100 % of control | dose: 60.0 mg/kg/injection, schedule: Q01DX009 (ip), vehicle: saline 97 % of control | dose: 120.0 mg/kg/injection, schedule: Q01DX005 (ip), vehicle: saline 94 % of control | dose: 120.0 mg/kg/injection, schedule: Q01DX009 (ip), vehicle: saline 105 % of control

Nc1nnc(CCC(=O)Nc2cc(Cl)c(Cl)cc2Cl)n1N
inactive: [1] 108 % of control | [4] 111 % of control | dose: 240.0 mg/kg/injection, schedule: Q01DX005 (ip), vehicle: saline with Tween-80 121 % of control

Cc1cc2ccccc2c[n+]1C
inactive: dose: 1.56 mg/kg/injection, schedule: Q01DX009 (ip), vehicle: saline with Tween-80 105 % of control | dose: 3.12 mg/kg/injection, schedule: Q01DX009 (ip), vehicle: saline with Tween-80 102 % of control | dose: 6.25 mg/kg/injection, schedule: Q01DX009 (ip), vehicle: saline with Tween-80 96 % of control | dose: 12.5 mg/kg/injection, schedule: Q01DX009 (ip), vehicle: saline with Tween-80 105 % of control | dose: 12.5 mg/kg/injection, schedule: Q04DX003 (ip), vehicle: saline 100 % of control | dose: 25.0 mg/kg/injection, schedule: Q04DX003 (ip), vehicle: saline 100 % of control | dose: 50.0 mg/kg/injection, schedule: Q04DX003 (ip), vehicle: saline 100 % of control

CCCCC(CC)(CCC)CCN (stereo unspecified)
inactive: dose: 6.25 mg/kg/injection, schedule: Q01DX009 (ip), vehicle: suspension in saline 104 % of control | dose: 12.5 mg/kg/injection, schedule: Q01DX009 (ip), vehicle: suspension in saline 107 % of control | dose: 25.0 mg/kg/injection, schedule: Q01DX009 (ip), vehicle: suspension in saline 102 % of control

CC(=O)OC1CC2C3(C)CCC4C(C)(C)CCCC4(C)C3CC(O)C2(C)C2C1=COC2OC(C)=O (stereo unspecified)
inactive: dose: 15.0 mg/kg/injection, schedule: Q01DX005 (ip), vehicle: Klucel (hydroxypropylcellulose) (HPC) 102 % of control | dose: 30.0 mg/kg/injection, schedule: Q01DX005 (ip), vehicle: Klucel (hydroxypropylcellulose) (HPC) 120 % of control

CC(=O)C(C(=O)Nc1cccc2ccccc12)C(C)=NCCN=C(C)C(C(C)=O)C(=O)Nc1cccc2ccccc12.[Cu] (stereo unspecified)
inactive: dose: 50.0 mg/kg/injection, schedule: Q01DX005 (ip), vehicle: saline with Tween-80 94 % of control | dose: 100.0 mg/kg/injection, schedule: Q01DX005 (ip), vehicle: saline with Tween-80 96 % of control | dose: 200.0 mg/kg/injection, schedule: Q01DX005 (ip), vehicle: saline with Tween-80 96 % of control

Source: PubChem BioAssay AID330 (DTP/NCI, 2004)
